The record followed here is US20090137572A1, “2-substituted-4-heteroaryl-pyrimidines useful for the treatment of proliferative disorders” (priority 2004, published 2009).

Format in all cases: biochemical
In assay [1] the target is T1, protein kinases (panel of Table 4) (Homo sapiens, UniProt P35968).
T1 construct: other: kinase VEGFR2; ATP 100 μM
Description: Kinase selectivity profile, kinase inhibition IC50 (Table 4), ATP 100 μM. The conditions noted are these: kinase VEGFR2. How it is done: (§1) For the assays shown in Table 3, the kinases were assayed at the following ATP concentrations: SAPK4, PKBΔph, GSK3b, SAPK3, CK2, MKK1, PIM2, IKKB, ERK8, and PRK2 at 5 μM; JNK, PRAK, ROCK-II, SAPK2b, CDK2, CHK1, MSK1, CSK, P70S6K, PKA, CK1, MAPKAP-K2, SGK, PKCa, PDK1, NEK 7, and MAPKAP-K3 at 20 μM; SAPK2a, LCK, AMPK, MAPK2, DYRK1a, MAPKAP-K1a, NEK-6, NEK2a, PBK, CAMK-1, SRPK-1, JNK3, MNK2, RSK2, MNK1, PKBB, and SmMLCK at 50 μM. For the assays in Table 4 the ATP concentration was 100 μM throughout.

Another assay concerns the target CDK4-cyclin D1 (Homo sapiens, UniProt P11802). In words: Kinase assay (radioactive phosphate incorporation), CDK4-cyclin D1. Conditions: read-out: Kinase Inhibition pIC50 CDK4-cyclin D1 (converted). A digest of the protocol: (§2)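 Inhibition measured as 32P transfer from ATP (100 μM, 15 mM MgCl2) onto peptide substrates at 30° C. Each assay used 2-4 μg active recombinant enzyme in pH 7.4 buffer. Reactions stopped on ice, filtered, acid-washed and counted; compounds diluted into 10% DMSO in assay buffer.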

The target in assay [2] is T2, Flt3 (FMS-like tyrosine kinase-3) (Homo sapiens, UniProt P36888).
T2 sequence (P36888 27-993): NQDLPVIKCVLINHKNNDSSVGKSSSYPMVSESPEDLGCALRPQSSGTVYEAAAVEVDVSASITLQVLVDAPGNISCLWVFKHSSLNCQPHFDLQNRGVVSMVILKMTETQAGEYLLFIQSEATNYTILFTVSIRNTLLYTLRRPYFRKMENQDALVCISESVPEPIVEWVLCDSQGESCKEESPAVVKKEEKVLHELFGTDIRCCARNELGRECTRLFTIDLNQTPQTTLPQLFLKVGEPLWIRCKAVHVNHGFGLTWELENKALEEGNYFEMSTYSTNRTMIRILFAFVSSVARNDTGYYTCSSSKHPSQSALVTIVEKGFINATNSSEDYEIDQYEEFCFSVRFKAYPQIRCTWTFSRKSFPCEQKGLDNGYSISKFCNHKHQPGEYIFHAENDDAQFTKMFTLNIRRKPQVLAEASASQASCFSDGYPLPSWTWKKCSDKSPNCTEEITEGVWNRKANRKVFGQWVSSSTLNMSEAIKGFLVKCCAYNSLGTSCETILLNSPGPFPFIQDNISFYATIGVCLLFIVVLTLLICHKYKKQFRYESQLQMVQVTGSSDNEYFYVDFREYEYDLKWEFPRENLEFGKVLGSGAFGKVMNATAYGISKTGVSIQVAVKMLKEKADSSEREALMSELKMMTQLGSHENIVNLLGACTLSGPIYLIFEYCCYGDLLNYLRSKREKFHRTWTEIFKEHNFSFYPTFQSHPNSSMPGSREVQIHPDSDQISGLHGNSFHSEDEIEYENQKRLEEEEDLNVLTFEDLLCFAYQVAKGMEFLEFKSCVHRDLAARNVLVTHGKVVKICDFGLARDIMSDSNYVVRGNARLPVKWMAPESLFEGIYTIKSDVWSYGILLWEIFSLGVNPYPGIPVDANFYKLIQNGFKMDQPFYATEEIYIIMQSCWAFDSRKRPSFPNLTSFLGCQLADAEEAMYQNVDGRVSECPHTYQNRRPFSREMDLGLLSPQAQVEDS
Description: Kinase assay (radioactive phosphate incorporation), Flt3. Conditions: pIC50 is -log(IC50, M), read-out: Kinase Inhibition pIC50 Flt3 (converted). The method in brief: as §2

The target in a further assay is CDK1-cyclin B (Homo sapiens, UniProt P06493). In words: Kinase assay (radioactive phosphate incorporation), CDK1-cyclin B. Conditions: read-out: Kinase Inhibition pIC50 CDK1-cyclin B (converted). The method in brief:
as §2

For another assay, the target named is GSK3b (Homo sapiens, UniProt P49841). In words: Kinase assay (radioactive phosphate incorporation), GSK-3b. The conditions noted are these: read-out: Kinase Inhibition pIC50 GSK-3b (converted). A digest of the protocol:
as §2

Assay [3] addresses T3, protein kinases (panel of Table 4) (Homo sapiens, UniProt P24941).
T3 construct: other: kinase CDK2A; ATP 100 μM; other: kinase CDK2E
In words: Kinase selectivity profile, kinase inhibition IC50 (Table 4), ATP 100 μM. How it is done: as §1

The target in a further assay is CDK2-cycline E (Homo sapiens, UniProt P24941). In words: Kinase assay (radioactive phosphate incorporation), CDK2-cyclin E. Conditions: read-out: Kinase Inhibition pIC50 CDK2-cycline E (converted). The method in brief:
as §2

A further assay has as its target CDK2-cyclin A (Homo sapiens, UniProt P24941). In words: Kinase assay (radioactive phosphate incorporation), CDK2-cyclin A. The conditions noted are these: read-out: Kinase Inhibition pIC50 CDK2-cyclin A (converted). A digest of the protocol: as §2
Where [4] appears, read: kinase CDK2A, read-out: Kinase inhibition IC50, CDK2A.
Where [5] appears, read: kinase CDK2E, read-out: Kinase inhibition IC50, CDK2E.

pIC50: −log10 of the molar value. Like-named read-outs stand apart in the source and are kept apart here.

CDK4-cyclin D1, sequence (P11802 whole entry): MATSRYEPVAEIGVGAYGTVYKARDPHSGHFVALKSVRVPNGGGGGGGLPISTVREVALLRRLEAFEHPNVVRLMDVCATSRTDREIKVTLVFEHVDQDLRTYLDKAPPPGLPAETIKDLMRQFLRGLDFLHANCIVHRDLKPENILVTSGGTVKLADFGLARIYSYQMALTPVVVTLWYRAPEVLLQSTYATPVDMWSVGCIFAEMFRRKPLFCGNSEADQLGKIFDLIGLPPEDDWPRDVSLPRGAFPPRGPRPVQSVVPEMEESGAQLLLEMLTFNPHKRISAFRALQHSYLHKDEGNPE
CDK4-cyclin D1, sequence (P24385 whole entry partner): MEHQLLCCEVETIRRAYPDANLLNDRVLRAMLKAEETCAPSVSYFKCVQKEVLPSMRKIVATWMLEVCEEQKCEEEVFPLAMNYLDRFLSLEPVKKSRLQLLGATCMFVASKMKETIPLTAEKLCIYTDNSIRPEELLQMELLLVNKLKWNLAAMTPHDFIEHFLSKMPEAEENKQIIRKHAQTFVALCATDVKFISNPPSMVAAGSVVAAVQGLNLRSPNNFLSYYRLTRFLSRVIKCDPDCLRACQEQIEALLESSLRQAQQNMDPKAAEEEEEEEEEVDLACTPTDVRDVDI
CDK1-cyclin B, sequence (P06493 whole entry): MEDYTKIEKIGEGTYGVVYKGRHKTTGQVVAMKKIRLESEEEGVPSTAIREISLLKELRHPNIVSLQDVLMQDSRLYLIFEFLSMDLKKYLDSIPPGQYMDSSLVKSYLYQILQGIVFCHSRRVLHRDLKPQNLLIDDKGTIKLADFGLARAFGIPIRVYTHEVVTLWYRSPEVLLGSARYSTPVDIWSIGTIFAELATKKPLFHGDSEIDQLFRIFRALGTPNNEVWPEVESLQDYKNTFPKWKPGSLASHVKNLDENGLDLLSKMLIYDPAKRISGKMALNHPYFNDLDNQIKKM
CDK1-cyclin B, sequence (P14635 whole entry partner): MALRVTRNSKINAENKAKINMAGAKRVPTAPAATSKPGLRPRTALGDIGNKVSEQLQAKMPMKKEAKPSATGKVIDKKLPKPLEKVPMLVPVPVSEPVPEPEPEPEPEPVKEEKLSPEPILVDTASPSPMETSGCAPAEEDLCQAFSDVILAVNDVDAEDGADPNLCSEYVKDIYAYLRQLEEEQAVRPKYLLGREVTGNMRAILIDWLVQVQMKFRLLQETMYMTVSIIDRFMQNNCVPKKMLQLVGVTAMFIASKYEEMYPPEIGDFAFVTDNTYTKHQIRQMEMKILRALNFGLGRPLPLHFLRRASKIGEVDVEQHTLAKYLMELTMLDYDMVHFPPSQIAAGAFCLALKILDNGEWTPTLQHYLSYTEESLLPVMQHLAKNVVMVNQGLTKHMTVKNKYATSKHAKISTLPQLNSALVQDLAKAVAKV
T1 sequence (P35968 whole entry): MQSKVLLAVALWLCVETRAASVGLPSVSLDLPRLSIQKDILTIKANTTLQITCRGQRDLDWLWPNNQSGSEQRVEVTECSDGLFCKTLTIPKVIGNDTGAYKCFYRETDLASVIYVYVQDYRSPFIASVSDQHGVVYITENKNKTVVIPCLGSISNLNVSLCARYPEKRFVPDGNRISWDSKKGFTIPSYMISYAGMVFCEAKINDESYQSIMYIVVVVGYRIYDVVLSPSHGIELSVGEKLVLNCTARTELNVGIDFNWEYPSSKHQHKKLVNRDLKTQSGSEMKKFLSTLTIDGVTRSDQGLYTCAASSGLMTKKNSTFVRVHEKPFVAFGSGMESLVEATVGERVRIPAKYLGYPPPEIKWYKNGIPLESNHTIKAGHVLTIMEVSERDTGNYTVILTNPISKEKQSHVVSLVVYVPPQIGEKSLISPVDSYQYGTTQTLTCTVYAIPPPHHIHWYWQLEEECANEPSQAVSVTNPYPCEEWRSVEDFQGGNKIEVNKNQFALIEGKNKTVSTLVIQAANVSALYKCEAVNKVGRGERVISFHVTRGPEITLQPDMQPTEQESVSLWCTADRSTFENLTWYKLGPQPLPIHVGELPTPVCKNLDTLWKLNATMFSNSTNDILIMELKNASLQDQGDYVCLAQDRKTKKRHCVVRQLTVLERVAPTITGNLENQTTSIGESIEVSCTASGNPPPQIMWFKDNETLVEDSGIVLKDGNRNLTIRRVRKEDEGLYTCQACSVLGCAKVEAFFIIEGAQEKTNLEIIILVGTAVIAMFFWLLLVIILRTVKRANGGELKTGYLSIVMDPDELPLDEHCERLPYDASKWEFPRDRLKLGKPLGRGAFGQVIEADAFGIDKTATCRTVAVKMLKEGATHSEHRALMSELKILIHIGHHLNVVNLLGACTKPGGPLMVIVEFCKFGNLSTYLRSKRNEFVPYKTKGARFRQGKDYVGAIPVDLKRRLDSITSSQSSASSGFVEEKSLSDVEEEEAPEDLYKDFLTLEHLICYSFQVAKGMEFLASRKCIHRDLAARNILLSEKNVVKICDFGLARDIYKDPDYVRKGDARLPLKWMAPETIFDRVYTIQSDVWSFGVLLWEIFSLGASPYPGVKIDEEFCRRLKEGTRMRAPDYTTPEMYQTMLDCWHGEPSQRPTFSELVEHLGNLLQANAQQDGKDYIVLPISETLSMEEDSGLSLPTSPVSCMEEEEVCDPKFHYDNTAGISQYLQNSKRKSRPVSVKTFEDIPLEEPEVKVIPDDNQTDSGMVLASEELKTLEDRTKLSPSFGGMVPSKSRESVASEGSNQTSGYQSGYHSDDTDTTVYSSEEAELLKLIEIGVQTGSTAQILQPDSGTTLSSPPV
GSK3b, sequence (P49841 whole entry, species assumed): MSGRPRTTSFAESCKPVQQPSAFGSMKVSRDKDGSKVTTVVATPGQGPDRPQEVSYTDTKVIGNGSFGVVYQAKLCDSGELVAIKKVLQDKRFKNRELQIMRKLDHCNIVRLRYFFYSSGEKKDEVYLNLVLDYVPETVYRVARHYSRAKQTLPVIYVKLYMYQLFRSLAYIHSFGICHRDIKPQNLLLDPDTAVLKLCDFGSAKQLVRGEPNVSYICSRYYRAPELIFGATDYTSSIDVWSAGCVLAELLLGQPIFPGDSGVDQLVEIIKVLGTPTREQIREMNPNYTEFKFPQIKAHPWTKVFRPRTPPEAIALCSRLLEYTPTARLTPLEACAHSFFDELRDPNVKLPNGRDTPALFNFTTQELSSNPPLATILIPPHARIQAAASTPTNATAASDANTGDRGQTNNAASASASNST

In assay [1], `CNc1nc(C)c(-c2ccnc(Nc3cccc(S(N)(=O)=O)c3)n2)s1` [Compound 19, 3-[4-(4-Methyl-2-methylamino-thiazol-5-yl)-pyrimidin-2-ylamino]-benzenesulfonamide] showed a pIC50 of 7.44. Further, the IC50 at CDK4-cyclin D1 is 15.8 nM; in assay [2], 31.6 nM; at CDK1-cyclin B it was 200 nM; on GSK3b it was 158 nM.
With `Cc1ccc(Nc2nccc(-c3sc(N)nc3C)n2)cc1S(=O)(=O)N1CCOCC1` [Compound 38, [4-(2-Amino-4-methyl-thiazol-5-yl)-pyrimidin-2-yl]-[4-methyl-3-(morpholine-4-sulfonyl)-phenyl]-amine], the pIC50 in assay [3] (setting [4]) and in assay [3] (setting [5]) was less than 5.00 each time. Moreover, the figures for the IC50 (in assay [2]; at GSK3b) were 200 nM and 2000 nM, respectively.
For `CNc1nc(C)c(-c2ccnc(Nc3ccc(C)c(S(=O)(=O)N4CCOCC4)c3)n2)s1` [Compound 37, [4-(4-Methyl-2-methylamino-thiazol-5-yl)-pyrimidin-2-yl]-[4-methyl-3-(morpholine-4-sulfonyl)-phenyl]-amine], the results for the pIC50 in assay [1], in assay [3] (setting [4]) and in assay [3] (setting [5]) were 6.41, less than 5.00 and 5.52, respectively. In addition, the figures for the IC50 (on CDK2-cycline E; in assay [2]; at GSK3b) were 3160 nM, 158 nM and 1260 nM, respectively.
Take `COCCNS(=O)(=O)c1cccc(Nc2nccc(-c3sc(N)nc3C)n2)c1` [Compound 55, 3-[4-(2-Amino-4-methyl-thiazol-5-yl)-pyrimidin-2-ylamino]-N-(2-methoxy-ethyl)-benzenesulfonamide]: the IC50 at CDK2-cyclin A was 2000 nM; on CDK2-cycline E, 251 nM; on CDK4-cyclin D1, 1580 nM; in assay [2], 200 nM; at CDK1-cyclin B, 3160 nM; at GSK3b it was 501 nM. The results for the negative-log IC50 (pIC50) in assay [1], in assay [3] (setting [4]) and in assay [3] (setting [5]) were 6.62, 5.68 and 6.57, respectively.
Take `Cc1nc(CS(=O)(=O)c2cccs2)sc1-c1ccnc(Nc2ccc(N3CCOCC3)cc2)n1` [Compound 138, {4-[4-Methyl-2-(thiophene-2-sulfonylmethyl)-thiazol-5-yl]-pyrimidin-2-yl}-(4-morpholin-4-yl-phenyl)-amine]: the IC50 on CDK2-cycline E was 3980 nM.
`CCNc1nc(C)c(-c2ccnc(Nc3ccc(N4CCNCC4)cc3)n2)s1` [Compound 59, [4-(2-Ethylamino-4-methyl-thiazol-5-yl)-pyrimidin-2-yl]-(4-piperazin-1-yl-phenyl)-amine]: the IC50 on CDK2-cyclin A is 501 nM; at CDK2-cycline E it was 158 nM; on CDK4-cyclin D1 it was 39.8 nM; in assay [2], 15.8 nM; at CDK1-cyclin B, 1000 nM. The values for the negative-log IC50 (pIC50) in assay [1], in assay [3] (setting [4]) and in assay [3] (setting [5]) were 7.34, 6.20 and 6.82, respectively.
Turning to `CNc1nc(C)c(-c2ccnc(Nc3cccc(S(C)(=O)=O)c3)n2)s1` [Compound 27, (3-Methanesulfonyl-phenyl)-[4-(4-methyl-2-methylamino-thiazol-5-yl)-pyrimidin-2-yl]-amine], the IC50 at CDK2-cyclin A is 6.31 nM; on CDK2-cycline E, 3.16 nM; on CDK4-cyclin D1, 158 nM; in assay [2] it was 63.1 nM; on CDK1-cyclin B, 251 nM; at GSK3b it was 100 nM. For the same molecule, the negative-log IC50 (pIC50) was 7.36 in assay [1], 8.15 in assay [3] (setting [4]) and 8.52 in assay [3] (setting [5]).
